Here are results for 8 molecules from article PMC3056768, “Conjugation to the Cell-Penetrating Peptide TAT Potentiates the Photodynamic Effect of Carboxytetramethylrhodamine” (PLoS ONE, 2011).

Entries after “also recorded” stand apart in the source; their conditions may differ.

Series [1] deals with HeLa cells. Put plainly: Photosensitization of extracellular peptide at 4°C (endocytosis blocked). Type of series: cell-based, human. The settings on record: 3 µM, 4°C to block endocytosis, irradiated at 560 nm with compound still in the media. How it is done: (§1) HeLa (human cervical adenocarcinoma), COS-7 (SV40 transformed African green monkey kidney fibroblast-like cell line) were obtained from ATCC. COLO 316 (human ovarian carcinoma) were obtained from Robert Burghardt (Department of Veterinary Integrative Biosciences, Texas A&M University). Cells were cultured in DMEM supplemented with 10% fetal bovine serum (FBS) and maintained at 37°C in a humidified environment with 5% CO2. Cells were plated in 8-well dishes so that the cells were 70% confluent after 24 h, washed 3 times with L-15 media, incubated with 3 to 10 µM peptides at 37°C for 1 h, washed 3 times with L-15, and imaged. Alternatively, cells were incubated in L-15 at 4°C to inhibit the endocytic uptake of peptides. In this case, cells were imaged with the peptide still present in solution and the low temperature was maintained for the entire duration of imaging. For photosensitization, cells were exposed to light (λex = 560±20 nm) for the indicated time points. Plasma membrane disruption was detected by addition of the cell-impermeable DNA stain SYTOX Blue (5 µM) during or after photosensitization.
It is therefore possible that the endosomal release observed in the experiments of Figure 1 might be necessary to cause cell death. To investigate whether this is the case, we examined if light-induced cell-death could be observed when the peptides were only localized at the plasma membrane of cells. For these experiments, HeLa cells were first incubated with the peptides (3 µM) at 4°C to block endocytosis. Cells were then irradiated with the peptides still present in the media (the peptide is not retained at the plasma membrane when cells are washed). […] Cells were then washed and observed by fluorescence imaging. […] On the other hand, the membrane damage and cell death obtained after TMR-TAT photosensitization were also observed when hematoporphyrin (HP) or hematoporphyrin derivative (HPD) were used (Fig. 4B). […]

Series [2] has as its system HeLa cells. Put plainly: Photocytotoxicity of endocytosed peptide after light irradiation (SYTOX Blue staining, membrane blebbing). As to conditions: for photocytotoxicity / cell death after irradiation at 560 nm: incubation 1 h 37°C (3 µM; TMR-K9 10 µM), irradiated at 560±20 nm. Type of series: cell-based. The method, then:
as §1
(§2) Ten to twenty images were acquired for each experiment.
Irradiances at the specimen were 100 mW/cm^2 when no neutral density filter and no objective were present in the light path (and, for instance 5 mW/cm^2 when ND4 was inserted). Irradiances were measured using a monochromic photometer (model 840-c, Newport, Irvine, CA). Irradiation area has a diameter of 1.3 cm without objective but the light beam is focused into an area of 3×10^−3 cm^2 by the 100× objective. Irradiances can therefore be approximated to be at […] with ND4 or ND1, respectively. Irradiances provided in the figure legends are based on these calculations. To confirm that the irradiances measured on the microscope were accurate, experiments were also reproduced, when possible, using light illumination with a collimated light source from Oriel (Stratford, CT) equipped with a 500 W Hg lamp. Selective irradiation at 560 nm was performed using an analytical line filter (Oriel, 9.4 nm bandwidth). In this case, irradiances of the light beam (diameter of 2.5 cm) could be measured more precisely using the monochromic photometer.

Series [3] relates to HeLa cells. Put plainly: Photo-induced endosomal release (fluorescence imaging). Type of series: cell-based, human. The settings on record: washed. The method, then:
as §1, §2
The effect of light irradiation on cells that have endocytosed TMR-TAT was first investigated. HeLa cells were incubated in the presence of TMR-TAT (3 µM) for 1 hour at 37°C. After washing the cells, the sample was placed on a microscope and the cellular distribution of the peptide was assessed by fluorescence imaging. […] Within seconds, the content of many endosomes was released into the cell and the peptides were distributed throughout the cell. The peptide also accumulated at the nucleoli, a known effect of TAT [7]. […] The viability of non-irradiated cells was, in contrast, not affected by TMR-TAT (Fig. 2B); we found the cytotoxicity of the peptide to be negligible in the absence of light at concentrations up to 25 µM (supporting information Fig. S1).

Another series has as its system red blood cells (RBCs). The settings on record: for effect of hydrophilic 1O2 scavenger on photohemolysis by TMR-TAT or TMR-riTAT: scavenger up to 50 mM, TMR-TAT or TMR-riTAT 3 µM. The method, then: Whole blood was purchased from Gulf Coast Regional Blood Center (Houston, TX). Erythrocytes were centrifuged for 5 min at 1500 g and the erythrocyte pellet was resuspended with PBS. This was repeated three times to remove plasma and buffy coat. The erythrocytes (50% volume in PBS) were diluted in PBS to a final concentration of 0.25%. Indicated concentration of peptide was added to the medium and the samples were added to the wells of an 8-well chamber glass slide (Nunc). Cells were typically allowed to settle to the bottom of the dish for 5 minutes prior to imaging so as to obtain a layer of cells in the focal plane.
Cells were placed on an inverted epifluorescence microscope (Model IX81, Olympus, Center Valley, PA) equipped with a heating stage maintained at 37°C. The microscope is configured with a spinning disk unit to perform both confocal and wide-field fluorescence microscopy. Images were collected using a Rolera-MGI Plus back-illuminated EMCCD camera (Qimaging, Surrey, BC, Canada). Images were acquired using bright field imaging and two standard fluorescence filter sets: Texas Red (Ex = 560±20 nm/Em = 630±35 nm), and CFP (Ex = 436±10 nm/Em = 480±20 nm). The excitation light was from a 100 W halogen lamp (Olympus USH 1030C) passed through the filter cubes and 40 or 100× objective lenses. Neutral density filters (ND 1, 2, 3, or 4 on the instrument, corresponding to 100, 25, 12.5, or 5% transmittance) and different exposure times were used to modulate the amount of light samples were exposed to. The bright field and fluorescence intensities of cells and ghosts were measured using the SlideBook 4.2 software (Olympus, Center Valley, PA). To determine the percentage of cells stained by SYTOX® Blue, cells were imaged with a 20× objective by phase contrast. Ten to twenty images were acquired for each experiment. The total number of cells in a given image was determined from the phase contrast image while the number of dead cells was determined by identifying cells containing a blue fluorescent nucleus stained by SYTOX® Blue. Cell viability was determined by establishing a ratio of dead cells/total number of cells for each sample (at least 1000 cells were counted in each experiments and each experiments were repeated 3 times).
TMR and TMR containing peptides were used at 2 µM. All experiments were performed by irradiating the samples at 560 nm for 400 msec (∼8 J/cm^2). The data in the histogram represents the average of 4 experiments and the error bars correspond to the standard deviation.

For series [4], the system named is HeLa cells. The experiment in a line: Endocytic uptake (fluorescence of endocytic organelles). Type of series: cell-based, human. How it is done: as §1
Supplementary file pone.0017732.s003.tif: Figure S3 Comparison of the fluorescence intensity of endosomes containing TMR-TAT (incubation at 3 µM) or TMR-K9 (incubation at 10 µM) in the images presented in Figure 1. Imaging was performed in both cases under identical conditions. The fluorescence intensities of all endocytic organelles was measured the Slidebook software. […] (TIF) Click here for additional data file.

For series [5] the following is noted: cited from earlier work. The source says: Upon light irradiation TMR-TAT rapidly and efficiently disrupts the membrane of endosomes. However, in our hands, this activity is also accompanied by the simultaneous destruction of cells. The peptide therefore played the role of a photosensitizer, a molecule able to kill cells upon light irradiation. While multiple cellular events might take place during the photosensitization of the compound, the damage to cellular membranes other than that of endosomes appears to lead to this photocytotoxic effect. The peptide was for instance able to lyse the plasma membrane of HeLa cells as well as the m ...

With “TMR-KKKKKKKKK-NH2 [TMR-K9, 9 positively charged lysine residues labeled with TMR; serves as a control]”, the “light-induced cell death with peptide only extracellular” value in the series on HeLa cells [1] is “did not die”. Moreover, the “photocytotoxicity / cell death after irradiation at 560 nm” value (“photocytotoxicity / cell death” below) with HeLa cells [2] (washed) is “remain viable; also recorded: no photocytoxicity; also recorded: essentially non-cytotoxic”. For the same molecule, in the series on HeLa cells [3] (incubation 1 h 37°C (3 µM; TMR-K9 10 µM), irradiated at 560±20 nm), the “photo-induced endosomal release (photoendosomolytic activity) at 560 nm” value was “not affected”. For the same molecule, the “fold less efficient than TMR-TAT and TMR-riTAT in causing photohemolysis” value with red blood cells (RBCs) (RBCs 0.25% in PBS, 2 µM, 560 nm for 400 msec (~8 J/cm^2), average of 4 experiments) is listed as 5 fold. In addition, the “endocytic uptake by cells” value with HeLa cells [4] (1 h at 37°C, washed, fluorescence imaging (TMR-TAT 3 µM; TMR-K9 higher concentration)) is recorded as “endocytosed by cells”. Further, in the series with HeLa cells [4] (TMR-K9 incubation at 10 µM vs TMR-TAT at 3 µM, identical imaging), the “amount present in endocytic organelles (fluorescence intensity) compared with TMR-TAT” value is given as “equal or greater that that of TMR-TAT”.

Consider `N[C@@H](Cc1c[nH]cn1)C(=O)O` [L-histidine, reference compound], for which the “effect of hydrophilic 1O2 scavenger on photohemolysis by TMR-TAT or TMR-riTAT” value in the series on red blood cells (RBCs) is recorded as “no detectable decrease”.

For `CC(/C=C/C=C(\C)C(=O)O)=C\C=C\C=C(C)\C=C\C=C(/C)C(=O)O` [crocetin, reference compound], the “cell death by irradiated TMR-TAT in the presence of quencher” value with HeLa cells [2] (TMR-TAT 3 µM with crocetin 50 µM for 1 hour, washed, 560 nm) was “cell-death was not observed; also recorded: not accompanied by membrane blebbing or SYTOX® Blue staining”. For the same molecule, the “endosomal release of TMR-TAT in the presence of quencher” value in the series with HeLa cells [3] (TMR-TAT 3 µM with crocetin 50 µM for 1 hour, 560 nm) was “lesser extent; also recorded: reduced by crocetin but not abolished”. Moreover, the “effect of quencher on photohemolysis” value in the series on red blood cells (RBCs) (crocetin 50 µM) is listed as “dramatic reduction”.

Regarding “GRKKRRQRRR [TAT, prototypical cell-penetrating peptide TAT, unlabeled]”, the “photocytotoxicity / cell death” value in the series with HeLa cells [2] (washed) is “did not die”.

Consider `[N-]=[N+]=[N-].[Na+]` [sodium azide, reference compound], for which the “effect of hydrophilic 1O2 scavenger on photohemolysis by TMR-TAT or TMR-riTAT” value in the series on red blood cells (RBCs) is recorded as “no detectable decrease”.

On to `CC(=O)Oc1c(C)c(C)c2c(c1C)CCC(C)(CCC[C@H](C)CCC[C@H](C)CCCC(C)C)O2` (stereo partly drawn) [α-tocopherol acetate], for which the “onset of photosensitization of TMR-TAT in the presence of quencher” value with HeLa cells [2] (α-tocopherol acetate prior to TMR-TAT incubation and during irradiation) was “delayed”. In the series with HeLa cells [2] (α-tocopherol acetate prior to TMR-TAT incubation and during irradiation, data not shown), the “photo-induced endosomal release and cell death by TMR-TAT in the presence of quencher” value is on record as “still observed”.

As to `CC1=C(CCC(=O)O)c2cc3[nH]c(cc4nc(cc5[nH]c(cc1n2)c(C)c5C(C)O)C(C)=C4C(C)O)c(C)c3CCC(=O)O` (stereo not shown) [HP, hematoporphyrin], the “singlet oxygen quantum yield” value in series [5] is reported as “approximately 0.5”. Further, in the series on HeLa cells [2] (incubated 1 hour, washed with L-15, irradiated at 560 nm), the “membrane damage and cell death after photosensitization” value is reported as “also observed”.

Turning to “5(6)-carboxytetramethylrhodamine [TMR, reference compound]”, the “light-induced cell death with peptide only extracellular” value with HeLa cells [1] is listed as “did not die”. In addition, the “photocytotoxicity / cell death” value in the series with HeLa cells [2] (washed) is “did not cause cell death; also recorded: essentially non-cytotoxic”. Moreover, in the series with red blood cells (RBCs) (RBCs 0.25% in PBS, irradiation at 560 nm), the “photohemolysis (lytic effect on RBCs upon light exposure)” value was “no lytic effect”.
